Test results reported in patent US9545367B2, “Cosmetic use of N-heteroarylbisamide analogs and related compounds” (Avon Products, Inc., priority 2011, dated 2017).

What was measured:
Assay type in all cases: cell-based, human
[1] = test system: explanted skin tissue; test: Skin explant assay, hematoxylin and eosin histology; settings: skin explants, 0.025 weight percent, administered days 0, 1, 2, 5, 7; nine days in culture; vs vehicle control; FIG. 1B
Procedure: (§1) Samples of explanted skin tissue were obtained from an abdominal plasty of a person. Samples (33 samples in total) were maintained in tissue culture medium at 37° C. in a humid, 5%-CO2 atmosphere for the duration of the study.
(§2) The skin tissue explants were then distributed into appropriate controls or treated samples in triplicates. The controls received only a vehicle, and the treatment samples received 0.025 weight percent of Analog A disclosed above. The vehicle and Analog A were administered to the controls and treatment samples, respectively, on days 0, 1, 2, 5, and 7.
(§3) After nine days in culture the vehicle and Analog A treated samples were collected and processed for histology and immunostaining Initially, the samples were fixed in buffered formalin for 24 hours. […] Tissue samples were also stained for procollagen I using a Procollagen I rat monoclonal antibody with streptavidin alkaline phosphatase conjugate (Vectastain, Vector labs) and Vector® blue substrate detection system (Vector Laboratories LTD., Peterborough, UK), and hyaluronic acid using biotinylated affinity purified Hyaluronic Acid Binding Protein ((bovine nasal cartilage) Calbiochem, EMD Chemicals USA) and detected using the aforementioned detection system […]

[2] = test system: Hyaluronic Acid; test: Skin explant assay, Hyaluronic Acid Binding Protein staining; settings: skin explants, 0.025 weight percent, nine days in culture; FIGS. 2A and 2B
Procedure: as §1, §2, §3

[3] = test system: Procollagen 1; test: Skin explant assay, procollagen I immunostaining; settings: skin explants, 0.025 weight percent, nine days in culture; FIGS. 3A and 3B
Procedure: as §1, §2, §3

Cc1cccc(-n2nc(C(C)(C)C)cc2NC(=O)CCCC(=O)NC(C)C(C)C)c1 (stereo not shown) [Analog A]
cell density throughout the basal epidermis (hematoxylin and eosin stain) [1]: maintained their cell density throughout the basal epidermis
contact with the basal layer (hematoxylin and eosin stain) [1]: good contact with the basal layer
expression of Hyaluronic Acid in comparison to the vehicle control [2]: increased
expression of Procollagen 1 in comparison to the vehicle control [3]: increased
